Our source for the IC50 values is patent publication US20210198277A1, “AMINE-SUBSTITUTED ARYL OR HETEROARYL COMPOUNDS” (Epizyme, Inc., priority 2016, published 2021).

For orientation: IC50 means the concentration at which inhibition is half-maximal.

For the experiment, the target named is T1, EHMT2 (Homo sapiens, UniProt Q96KQ7).
T1 construct: host or cells: MDA-MB-231
T1 sequence (Q96KQ7 1-1210): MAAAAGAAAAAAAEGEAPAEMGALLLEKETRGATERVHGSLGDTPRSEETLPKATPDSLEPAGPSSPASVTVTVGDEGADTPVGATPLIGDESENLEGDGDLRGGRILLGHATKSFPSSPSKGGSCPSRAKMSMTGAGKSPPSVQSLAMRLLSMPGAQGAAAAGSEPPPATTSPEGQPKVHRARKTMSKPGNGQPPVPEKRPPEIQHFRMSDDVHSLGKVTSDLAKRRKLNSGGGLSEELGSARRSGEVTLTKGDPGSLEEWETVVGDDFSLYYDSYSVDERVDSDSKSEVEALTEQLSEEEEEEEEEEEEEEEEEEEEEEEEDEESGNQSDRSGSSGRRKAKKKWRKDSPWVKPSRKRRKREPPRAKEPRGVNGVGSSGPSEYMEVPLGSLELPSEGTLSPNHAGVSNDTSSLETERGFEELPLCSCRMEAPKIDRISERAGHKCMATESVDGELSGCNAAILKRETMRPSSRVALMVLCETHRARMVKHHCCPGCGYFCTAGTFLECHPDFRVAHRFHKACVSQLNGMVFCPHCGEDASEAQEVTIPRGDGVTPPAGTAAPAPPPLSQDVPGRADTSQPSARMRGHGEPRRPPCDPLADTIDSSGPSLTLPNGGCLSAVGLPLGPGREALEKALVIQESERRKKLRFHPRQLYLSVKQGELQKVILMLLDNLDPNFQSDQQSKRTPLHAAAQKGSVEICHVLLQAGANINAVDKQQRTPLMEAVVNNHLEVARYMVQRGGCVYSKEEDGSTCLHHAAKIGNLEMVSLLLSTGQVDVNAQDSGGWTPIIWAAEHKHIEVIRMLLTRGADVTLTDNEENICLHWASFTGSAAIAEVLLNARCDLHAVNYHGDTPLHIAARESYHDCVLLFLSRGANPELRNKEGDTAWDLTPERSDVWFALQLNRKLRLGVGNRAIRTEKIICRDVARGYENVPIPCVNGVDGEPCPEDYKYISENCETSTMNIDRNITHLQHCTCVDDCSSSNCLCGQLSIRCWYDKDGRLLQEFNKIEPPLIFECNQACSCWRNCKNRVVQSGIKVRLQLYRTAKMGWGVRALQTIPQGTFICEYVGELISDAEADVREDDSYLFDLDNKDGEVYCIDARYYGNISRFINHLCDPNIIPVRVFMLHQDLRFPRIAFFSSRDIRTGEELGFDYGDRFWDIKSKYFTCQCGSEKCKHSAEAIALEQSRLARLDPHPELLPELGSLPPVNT
Kind of experiment: MDA-MB-231 H3K9me2 in-cell Western assay (EHMT2 ICW). Type of experiment: cell-based. The following applies: Table II; MDA-MB-231 H3K9me2 in-cell Western; read-out: EHMT2 ICW (IC50 μM). The gist of the method: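 IC50 values came from a variable-slope four-parameter fit on triplicate wells, using % inhibition from the 800/700 nm infrared signal ratio (anti-H3K9me2 versus DRAQ5 DNA stain). Before fixation and immunostaining, MDA-MB-231 cells, 3,000 per well, were exposed to compound for 48 h at 37 °C.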
Regarding `COc1ccc(Nc2nccc(NCC3CCN(C(C)C)CC3)n2)cc1OCCCN1CCCC1` [Compound 29], the IC50 lay in the range of 0.1 to 1 µM.

In the case of `COc1cccc(CNc2ccnc(Nc3ccc(OC)c(OCCCN4CCCC4)c3)n2)c1` [Compound 26], the IC50 was 0.1 to 1 µM.

As to `COc1ccc(OCCCN2CCCC2)cc1Nc1nccc(NCC2CCOCC2)n1` [Compound 227], the concentration for half-maximal inhibition (IC50) was greater than 10 µM.

In the case of `COc1ccc(Nc2nccc(-c3cnn(C)c3)n2)cc1OCCCN1CCCC1` [Compound 224], the 50% inhibitory concentration (IC50) was greater than 10 µM.

For the compound `COc1ccc(Nc2nccc(NCCc3ccncc3)n2)cc1OCCCN1CCCC1` [Compound 39], the concentration for half-maximal inhibition (IC50) is 0.1 to 1 µM.

On to `CNc1cncc(Nc2ccc(OC)c(OCCCN3CCCC3)c2)n1` [Compound 247], for which the IC50 fell in the range of 1 to 10 µM.

On to `CNc1ccnc(Nc2cccc(OC[C@H](O)CN3CCCC3)c2)n1` [Compound 252], for which the IC50 lay in the range of 1 to 10 µM.

`COc1ccc(Nc2nccc(-n3nc(C)cc3C)n2)cc1OCCCN1CCCC1` [Compound 214]: the IC50 was greater than 10 µM.

In the case of `COc1ccc(Nc2nccc(NCC3(O)CCCCC3)n2)cc1OCCCN1CCCC1` [Compound 45], the IC50 was 1 to 10 µM.

On to `COc1ccccc1CNc1ccnc(Nc2ccc(OC)c(OCCCN3CCCC3)c2)n1` [Compound 36], for which the IC50 was in the range of 0.1 to 1 µM.

Take `COc1ccc(Nc2nccc(NCC3(O)CCOCC3)n2)cc1OCCCN1CCCC1` [Compound 49]: the concentration for half-maximal inhibition (IC50) was 1 to 10 µM.

`COc1ccc(Nc2nccc(NCC3CCN(C(C)=O)CC3)n2)cc1COCCN1CCCC1` [Compound 48]: the 50% inhibitory concentration (IC50) is 1 to 10 µM.

Regarding `COc1ccc(Nc2nccc(NCCS(=O)(=O)N(C)C)n2)cc1OCCCN1CCCC1` [Compound 43], the IC50 fell in the range of 1 to 10 µM.

On to `COc1ccc(Nc2nc(C)cc(NCC3CCN(C(C)=O)CC3)n2)cc1OCCCN1CCCC1` [Compound 19, 1-(4-(((2-((4-methoxy-3-(3-(pyrrolidin-1-yl)propoxy)phenyl)amino)-6-methylpyrimidin-4-yl)amino)methyl)piperidin-1-yl)ethan-1-one], for which the IC50 fell in the range of 0.1 to 1 µM.

As for `CNc1ccnc(Nc2cccc(OC[C@@H](O)CN3CCCC3)c2)n1` [Compound 253], the IC50 is greater than 10 µM.

As for `COc1ccc(Nc2nccc(NCC3CCNCC3)n2)cc1CCNCC1CCCC1` [Compound 17, N^2-(3-(2-((cyclopentylmethyl)amino)ethyl)-4-methoxyphenyl)-N^4-(piperidin-4-ylmethyl)pyrimidine-2,4-diamine], the IC50 is greater than 10 µM.

Regarding `COc1ccc(Nc2nccc(NCCCN(C)C(C)=O)n2)cc1OCCCN1CCCC1` [Compound 44], the IC50 fell in the range of 1 to 10 µM.

As for `CNC(=O)CNc1ccnc(Nc2ccc(OC)c(OCCCN3CCCC3)c2)n1` [Compound 41], the IC50 lay within 1 to 10 µM.

Take `COc1ccc(Nc2ncc3ncn(C)c3n2)cc1OCCCN1CCCC1` [Compound 219]: the IC50 was greater than 10 µM.

In the case of `COc1ccc(Nc2nccc(NC(C)C)n2)cc1OCCCN1CCCC1` [Compound 20], the IC50 lay within 0.1 to 1 µM.

With `COc1ccc(Nc2nccc3[nH]ncc23)cc1OCCCN1CCCC1` [Compound 249], the half-maximal inhibitory concentration (IC50) was greater than 10 µM.

For `CNc1nccc(Nc2ccc(OC)c(OCCCN3CCCC3)c2)n1` [Compound 231], the IC50 fell in the range of 0.1 to 1 µM.

Consider `CNCc1cnc(Nc2ccc(OC)c(OCCCN3CCCC3)c2)nc1` [Compound 215], for which the concentration for half-maximal inhibition (IC50) is greater than 10 µM.

For the compound `COc1ccc(Nc2nccc(NCc3cnn(C)c3)n2)cc1OCCCN1CCCC1` [Compound 30], the IC50 is 0.1 to 1 µM.

Regarding `COc1ccc(Nc2nccc(NCC(C)(C)O)n2)cc1OCCCN1CCCC1` [Compound 42], the IC50 was in the range of 1 to 10 µM.

Take `COc1ccc(Nc2nccc(NCC3CCN(C)CC3)n2)cc1OCCCN1CCCC1` [Compound 32]: the half-inhibitory concentration (IC50) was 0.1 to 1 µM.

On to `COc1ccc(Nc2nccc(NCc3ccccn3)n2)cc1OCCCN1CCCC1` [Compound 23], for which the half-inhibitory concentration (IC50) fell in the range of 0.1 to 1 µM.

As for `CCc1cc(NC)nc(Nc2ccc(OC)c(OCCCN3CCCC3)c2)n1` [Compound 240], the half-maximal inhibitory concentration (IC50) was 0.1 to 1 µM.

For the compound `COc1ccc(Nc2ccnc(NCC3CCN(C(C)=O)CC3)n2)cc1OCCCN1CCCC1` [Compound 216], the concentration for half-maximal inhibition (IC50) is greater than 10 µM.

On to `COc1ccc(NCCCN2CCCC2)cc1Nc1nccc(NCC2CCOCC2)n1` [Compound 228], for which the IC50 was greater than 10 µM.

Regarding `CC(C)Nc1ccnc(Nc2cccc(OCCCN3CC[C@@H](F)C3)c2)n1` [Compound 251], the half-maximal inhibitory concentration (IC50) was greater than 10 µM.

In the case of `CNc1cc(C)nc(Nc2ccc(OC)c(OCCCN3CCCC3)c2)n1` [Compound 205, N^2-(4-methoxy-3-(3-(pyrrolidin-1-yl)propoxy)phenyl)-N^4,6-dimethylpyrimidine-2,4-diamine], the IC50 was less than 0.1 µM.

Regarding `COc1ccc(Nc2ccc3cnn(C)c3c2)cc1OCCCN1CCCC1` [Compound 217], the IC50 is greater than 10 µM.

On to `CNc1ccnc(Nc2cccc(OCCCN3CCCC3)c2)n1` [Compound 207, N^4-methyl-N^2-(3-(3-(pyrrolidin-1-yl)propoxy)phenyl)pyrimidine-2,4-diamine], for which the IC50 fell in the range of 1 to 10 µM.

On to `COc1ccc(Nc2nccc(NCCc3cccnc3)n2)cc1OCCCN1CCCC1` [Compound 37], for which the half-maximal inhibitory concentration (IC50) lay within 0.1 to 1 µM.

Regarding `COc1ccc(Nc2nccc(NCc3nc4ccccc4[nH]3)n2)cc1OCCCN1CCCC1` [Compound 31], the concentration for half-maximal inhibition (IC50) lay within 0.1 to 1 µM.

In the case of `COc1ccc(Nc2ccc3ncc(C)n3n2)cc1OCCCN1CCCC1` [Compound 223], the half-inhibitory concentration (IC50) is greater than 10 µM.

`CNc1ccnc(Nc2ccc(F)c(OCCCN3CCCC3)c2)n1` [Compound 244]: the IC50 was greater than 10 µM.

Turning to `COc1ccc(Nc2nccc(NCC3CCN(C(C)=O)CC3)n2)cc1OCC1CCN(C)C1` (stereo not drawn) [Compound 18, 1-(4-(((2-((4-methoxy-3-((1-methylpyrrolidin-3-yl)methoxy)phenyl)amino)pyrimidin-4-yl)amino)methyl)piperidin-1-yl)ethan-1-one], the IC50 lay in the range of 1 to 10 µM.

Turning to `COc1ccc(CNc2ccnc(Nc3ccc(OC)c(OCCCN4CCCC4)c3)n2)cc1` [Compound 28], the half-maximal inhibitory concentration (IC50) lay within 0.1 to 1 µM.

Consider `COc1ccc(Nc2nccc(NCc3ccncc3)n2)cc1OCCCN1CCCC1` [Compound 24], for which the half-maximal inhibitory concentration (IC50) lay in the range of 0.1 to 1 µM.

Consider `CNc1nc(Nc2ccc(OC)c(OCCCN3CCCC3)c2)ncc1C(F)(F)F` [Compound 234], for which the IC50 was greater than 10 µM.

Regarding `CNc1ccnc(Nc2ccc(OC)c(OCCCN3CC(F)C3)c2)n1` [Compound 230], the IC50 fell in the range of 1 to 10 µM.

With `CNc1nc(C)cc(Nc2ccc(OC)c(OCCCN3CCCC3)c2)n1` [Compound 208], the IC50 lay within 1 to 10 µM.

For `COc1ccc(Nc2nccc(CNC3CCOCC3)n2)cc1OCCCNc1ccccc1` [Compound 241], the 50% inhibitory concentration (IC50) was greater than 10 µM.

For the compound `CNc1nc(Nc2ccc(OC)c(OCCCN3CCCC3)c2)ncc1C#N` [Compound 233], the IC50 is greater than 10 µM.

As to `COc1ccc(Nc2ccc3ncn(C)c3n2)cc1OCCCN1CCCC1` [Compound 218], the IC50 is greater than 10 µM.

For the compound `COc1ccc(Nc2nccc(NCc3ccccc3)n2)cc1OCCCN1CCCC1` [Compound 21], the IC50 lay in the range of 0.1 to 1 µM.

Regarding `CNc1ncc(C(F)(F)F)c(Nc2ccc(OC)c(OCCCN3CCCC3)c2)n1` [Compound 235], the concentration for half-maximal inhibition (IC50) is greater than 10 µM.

`COc1ccc(Nc2nccc(N)n2)cc1OCCCN1CCCC1` [Compound 245]: the 50% inhibitory concentration (IC50) fell in the range of 1 to 10 µM.

With `CNc1cc(Nc2ccc(OC)c(OCCCN3CCCC3)c2)ccn1` [Compound 206], the 50% inhibitory concentration (IC50) was greater than 10 µM.
